This note sets out measurements from patent publication US9296698B2, “Amino heteroaryl compounds as beta-secretase modulators and methods of use” (Amgen Inc., priority 2009, dated 2016).

In assay [1] the test system is Aβ40 in conditioned medium of cells stably expressing Amyloid Precursor Protein (APP). Nature of the assay: In vitro BACE cell-based assay (HEK cell assay), Aβ40 sandwich ELISA. In outline: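 Cells stably expressing APP received 10-point compound dilutions (top 100 μM or 10 μM; 0.1% DMSO) for 24 h. Secreted Aβ40 was quantified by sandwich ELISA (pAb40 capture, biotinylated 6E10 detection, europium time-resolved fluorescence). IC50 was derived from percent inhibition versus concentration.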
(In an ELISA, binding on a coated surface is turned into a signal by an enzyme label.)

Assay [2] addresses BACE 1 (Beta Secretase enzyme) (Homo sapiens, UniProt P56817). Nature of the assay: In vitro enzymatic BACE FRET assay. In kind it is biochemical. Set-up: BACE 1 FRET assay (uM): scale not given here. The gist of the method: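 BACE activity read by FRET: peptide substrate (50 nM) carrying fluorophore and quencher across the cleavage site, incubated one hour in 0.05 M acetate pH 4.2, 10% DMSO final, 100 uM genapol. Tris addition raises pH to neutrality to stop the reaction before fluorescence is read.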

Where [3] appears, read: Homo sapiens, HEK293, 24 h, IC50 range symbols, Table 1, Aβ40, 24 h incubation, read-out: HEK cell assay.
The mark [4] stands for this setting: IC50 range symbols, Table 1, read-out: BACE 1 FRET assay.
[5] abbreviates: IC50 range symbols, Table 1, Aβ40, 24 h incubation, read-out: HEK cell assay.
Where [6] appears, read: bound stated, read-out: IC50 value in the FRET BACE enzyme assay.

Where two headings read alike, the source gives them in different places. Some results are limits rather than exact numbers.

BACE 1 (Beta Secretase enzyme), sequence (P56817 46-501, species assumed): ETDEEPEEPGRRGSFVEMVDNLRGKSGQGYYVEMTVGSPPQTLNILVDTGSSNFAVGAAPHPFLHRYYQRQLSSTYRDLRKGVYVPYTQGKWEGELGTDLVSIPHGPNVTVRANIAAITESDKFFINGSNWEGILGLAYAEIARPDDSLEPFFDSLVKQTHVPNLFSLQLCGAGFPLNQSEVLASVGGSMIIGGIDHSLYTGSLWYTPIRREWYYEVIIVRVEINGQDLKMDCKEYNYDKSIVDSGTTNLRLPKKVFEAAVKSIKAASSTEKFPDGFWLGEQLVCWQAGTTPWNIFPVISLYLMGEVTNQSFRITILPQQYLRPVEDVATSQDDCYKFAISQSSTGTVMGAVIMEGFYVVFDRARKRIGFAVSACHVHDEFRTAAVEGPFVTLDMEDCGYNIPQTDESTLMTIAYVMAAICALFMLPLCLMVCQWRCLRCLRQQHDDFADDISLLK

`Cc1cccnc1-c1ccc2nc(N)c(CC(C)C(=O)NCC(F)(F)F)cc2c1` (stereo not shown) [Example 110, 3-(2-amino-6-(3-methylpyridin-2-yl)quinolin-3-yl)-2-methyl-N-(2,2,2-trifluoroethyl)propanamide]: the IC50 in assay [1] (setting [3]) and in assay [2] (setting [4]) was 0.5 to 1 µM each time.
Turning to `Cc1ccccc1-c1cc2cc(CC(C)C(=O)NCCC(F)(F)F)c(N)nc2cn1` (stereo not shown) [Example 137, 3-(2-amino-6-o-tolyl-1,7-naphthyridin-3-yl)-2-methyl-N-(3,3,3-trifluoropropyl)propanamide], the IC50 was more than 5 µM in assay [1] (setting [3]) and less than 0.5 µM in assay [2] (setting [4]).
In the case of “3-(3-amino-7-o-tolylnaphthalen-2-yl)-N-(2-methoxy-2-methylpropyl)propanamide [Example 29]”, the IC50 in assay [1] (setting [5]) fell in the range of 1 to 5 µM; in assay [2] (setting [4]), 0.5 to 1 µM.
For “3-(3-amino-7-o-tolylnaphthalen-2-yl)-N-(pyridin-3-ylmethyl)propanamide [Example 37]”, the IC50 in assay [1] (setting [5]) was 1 to 5 µM; in assay [2] (setting [4]), less than 0.5 µM.
Consider `CC(Cc1cc2cc(-c3ncccc3CCN3CCOCC3)ccc2nc1N)C(=O)NCCC(C)(C)C` (stereo not shown) [Example 123, 3-(2-amino-6-(3-(2-morpholinoethyl)pyridin-2-yl)quinolin-3-yl)-N-(3,3-dimethylbutyl)-2-methylpropanamide], for which the IC50 in assay [1] (setting [3]) and in assay [2] (setting [4]) was less than 0.5 µM in each case.
On to “3-(3-amino-7-o-tolylnaphthalen-2-yl)-N-(pyridin-2-ylmethyl)propanamide [Example 36]”, for which the IC50 in assay [1] (setting [5]) is 1 to 5 µM; in assay [2] (setting [4]) it was less than 0.5 µM.
Turning to `Cc1ccccc1-c1ccc2nc(N)c(CCC(=O)NCc3ccnnc3)cc2c1` [Example 139, 3-(2-amino-6-o-tolylquinolin-3-yl)-N-(pyridazin-4-ylmethyl)propanamide], the IC50 was more than 5 µM in assay [1] (setting [3]) and 1 to 5 µM in assay [2] (setting [4]).
As to “3-(6-(3-chloropyridin-2-yl)quinolin-3-yl)-N-((4,4-difluorocyclohexyl)methyl)-2-methylpropanamide [Example 99]”, the results for the IC50 in assay [1] (setting [5]) and in assay [2] (setting [4]) were 1 to 5 µM and less than 0.5 µM, respectively.
Turning to `CC(Cc1cc2cc(-c3cccc(Cl)c3)ccc2nc1N)C(=O)NC1CCOC2(CCC2)C1` (stereo not shown) [Example 11, 3-(2-amino-6-(3-chlorophenyl)-3-quinolinyl)-2-methyl-N-(5-oxaspiro[3,5]non-8-yl)propanamide], the figures for the IC50 in assay [1] (setting [3]), in assay [2] (setting [4]) and in assay [2] (setting [6]) were less than 0.5 µM, less than 0.5 µM and less than 0.05 µM, respectively.
As for `Cc1ccccc1-c1ccc2nc(N)c(CCC(=O)NCCC(C)(C)O)cc2c1` [Example 141, 3-(2-amino-6-(2-methylphenyl)-3-quinolinyl)-N-(3-hydroxy-3-methylbutyl)propanamide], the IC50 in assay [1] (setting [3]) was 0.5 to 1 µM; in assay [2] (setting [4]), less than 0.5 µM.
For `CNC(=O)[C@@H](C)Cc1cc2cc(-c3c(C)cccc3C(=O)N3CCCC3)ccc2nc1N` [Example 155, (S) 3-(2-amino-6-(2-methyl-6-(pyrrolidine-1-carbonyl)phenyl)quinolin-3-yl)-N,2-dimethylpropanamide] the same measures were 1 to 5 µM and 1 to 5 µM.
With `CC(Cc1cc2cc(-c3ccccc3CN(C)C)ccc2nc1N)C(=O)NCC1CCCCC1` (stereo not shown) [Example 108, 3-(2-amino-6-(2-((dimethylamino)methyl)phenyl)quinolin-3-yl)-N-(cyclohexylmethyl)-2-methylpropanamide], the IC50 in assay [1] (setting [3]) is less than 0.5 µM; in assay [1] (Homo sapiens, HEK293, bound stated in text, read-out: IC50 value in the BACE cell-based in-vitro assay), less than 0.1 µM; in assay [2] (setting [4]) it was less than 0.5 µM.
Regarding `CC(Cc1cc2cc(-c3ccc(Cl)cc3)ccc2nc1N)C(=O)NC1CCOC(C)(C)C1` (stereo not shown) [Example 168, 3-(2-amino-6-(4-chlorophenyl)-3-quinolinyl)-N-(2,2-dimethyltetrahydro-2H-pyran-4-yl)-2-methylpropanamide], the IC50 in assay [1] (setting [3]) and in assay [2] (setting [4]) was less than 0.5 µM throughout.
For the compound `Nc1nc2ccc(-c3cccnc3)cc2cc1CCC(=O)NCC1CCCCC1` [Example 34, 3-(2-amino-6-(pyridin-3-yl)quinolin-3-yl)-N-(cyclohexylmethyl)propanamide], the IC50 in assay [1] (setting [3]) was 1 to 5 µM. Also, the “BACE 1 FRET assay (uM)” value in assay [2] (IC50 range symbols, Table 1) is “_++”.
As to `Cc1ccccc1-c1ccc2nc(N)c(C(C)CC(=O)NCC3CCCCC3)cc2c1` (stereo not shown) [Example 6, 3-(2-amino-6-o-tolylquinolin-3-yl)-N-(cyclohexylmethyl)butanamide], the results for the IC50 in assay [1] (setting [3]) and in assay [2] (setting [4]) were more than 5 µM and less than 0.5 µM, respectively.
For `Cc1cccnc1-c1ccc2nc(N)c(CCC(=O)N[C@H](C)c3cccnc3)cc2c1` [Example 132, (R)-3-(2-amino-6-(3-methylpyridin-2-yl)quinolin-3-yl)-N-(1-(pyridin-3-yl)ethyl)propanamide] the same measures were more than 5 µM and 1 to 5 µM.
In the case of `COc1ccccc1[C@@H](C)NC(=O)C(C)Cc1cc2cc(-c3ccccc3C)ccc2nc1N` (stereo partly drawn) [Example 129, 3-(2-amino-6-o-tolylquinolin-3-yl)-N-((R)-1-(2-methoxyphenyl)ethyl)-2-methylpropanamide], the IC50 is 1 to 5 µM in assay [1] (setting [5]) and less than 0.5 µM in assay [2] (setting [4]).
As to `Cc1ccccc1-c1ccc2nc(N)c(C[C@@H](C)C(=O)NC3CCCC(C)(C)C3)cc2c1` (stereo partly drawn) [Example 162, (2R)-3-(2-amino-6-(2-methylphenyl)-3-quinolinyl)-N-(3,3-dimethylcyclohexyl)-2-methylpropanamide], the IC50 in assay [1] (setting [3]) and in assay [2] (setting [4]) was less than 0.5 µM throughout.
Regarding `Cc1ccccc1-c1ccc2nc(N)c(CC(C)C(=O)NCc3cnn(C)c3)cc2c1` (stereo not shown) [Example 94, 3-(2-amino-6-o-tolylquinolin-3-yl)-2-methyl-N-((1-methyl-1H-pyrazol-4-yl)methyl)propanamide], the IC50 is 1 to 5 µM in assay [1] (setting [3]) and less than 0.5 µM in assay [2] (setting [4]).
For `Cc1ccccc1-c1ccc2nc(N)c(CC(C)C(=O)NC3CCOC4(CCC4)C3)cc2c1` [Example 170, (2R)-3-(2-amino-6-(2-methylphenyl)-3-quinolinyl)-2-methyl-N-(5-oxaspiro[35]non-8-yl)propanamide] the same measures were less than 0.5 µM and less than 0.5 µM.
In the case of `CCc1ccccc1-c1ccc2nc(N)c(CCC(=O)NCC3CCCCC3)cc2c1` [Example 49, 3-(2-amino-6-(2-ethylphenyl)quinolin-3-yl)-N-(cyclohexylmethyl)propanamide], the values for the IC50 in assay [1] (setting [3]) and in assay [2] (setting [4]) were 1 to 5 µM and less than 0.5 µM, respectively.
For `Nc1nc2ccc(-c3cccc(F)c3)cc2cc1CCC(=O)NCC1CCCCC1` [Example 43, 3-(2-amino-6-(3-fluorophenyl)quinolin-3-yl)-N-(cyclohexylmethyl)propanamide] the same measures were 1 to 5 µM and 0.5 to 1 µM.
As for `Cc1ccc(-c2ccc3nc(N)c(CC(C)C(=O)NCC4CCCCC4)cc3c2)c(F)n1` (stereo not shown) [Example 107, 3-(2-amino-6-(2-fluoro-6-methylpyridin-3-yl)quinolin-3-yl)-N-(cyclohexylmethyl)-2-methylpropanamide], the IC50 in assay [1] (setting [3]) and in assay [2] (setting [4]) was 1 to 5 µM in each case.
For “3-(3-amino-7-o-tolylnaphthalen-2-yl)-N-(6,7-dihydro-5H-cyclopenta[b]pyridin-7-yl)-2-methylpropanamide [Example 73]”, the IC50 in assay [1] (setting [5]) is 1 to 5 µM; in assay [2] (setting [4]), less than 0.5 µM.
In the case of `Nc1nc2ccc(-c3cscn3)cc2cc1CCC(=O)NCC1CCCCC1` [Example 2, 3-(2-amino-6-(thiazol-4-yl)quinolin-3-yl)-N-(cyclohexylmethyl)propanamide], the IC50 in assay [1] (setting [3]) is more than 5 µM; in assay [2] (setting [4]) it was 1 to 5 µM.
As to “3-(3-amino-7-o-tolylnaphthalen-2-yl)-N-((R)-1-(2-fluorophenyl)ethyl)propanamide [Example 55]”, the values for the IC50 in assay [1] (setting [5]) and in assay [2] (setting [4]) were 1 to 5 µM and less than 0.5 µM, respectively.
As for `Cc1ccccc1-c1ccc2nc(N)c(CC(C)C(=O)NC(C)c3ccccc3F)cc2c1` (stereo not shown) [Example 106, 3-(2-amino-6-o-tolylquinolin-3-yl)-N-(1-(2-fluorophenyl)ethyl)-2-methylpropanamide], the IC50 was more than 5 µM in assay [1] (setting [3]), less than 0.5 µM in assay [2] (setting [4]) and less than 0.05 µM in assay [2] (setting [6]).
For “N-(4-fluoro-4-methylpentan-2-yl)-2-methyl-3-(6-(3-methylpyridin-2-yl)quinolin-3-yl)propanamide [Example 100]”, the values for the IC50 in assay [1] (setting [5]) and in assay [2] (setting [4]) were 1 to 5 µM and 0.5 to 1 µM, respectively.
On to `Cc1ccccc1-c1ccc2nc(N)c(CC(C)C(=O)N[C@H](C)c3ccccc3OC(F)F)cc2c1` (stereo partly drawn) [Example 130, 3-(2-amino-6-o-tolylquinolin-3-yl)-N-((R)-1-(2-(difluoromethoxy)phenyl)ethyl)-2-methylpropanamide], for which the IC50 was 1 to 5 µM in assay [1] (setting [5]) and less than 0.5 µM in assay [2] (setting [4]).
As to `Cc1ccccc1-c1ccc2nc(N)c(CC(C)C(=O)NCC3CCOC3)cc2c1` (stereo not shown) [Example 91, 3-(2-amino-6-o-tolylquinolin-3-yl)-2-methyl-N-((tetrahydrofuran-3-yl)methyl)propanamide], the IC50 in assay [1] (setting [3]) is 1 to 5 µM; in assay [2] (setting [4]), less than 0.5 µM.
With `COc1ccccc1-c1ccc2nc(N)c(CCC(=O)NCC3CCCCC3)cc2c1` [Example 44, 3-(2-amino-6-(2-methoxyphenyl)quinolin-3-yl)-N-(cyclohexylmethyl)propanamide], the IC50 in assay [1] (setting [3]) was 1 to 5 µM; in assay [2] (setting [4]), less than 0.5 µM.
Take `Cc1ccccc1-c1ccc2nc(N)c(CCC(=O)NCc3nccs3)cc2c1` [Example 63, 3-(2-amino-6-o-tolylquinolin-3-yl)-N-(thiazol-2-ylmethyl)propanamide]: the IC50 in assay [1] (setting [3]) was 1 to 5 µM; in assay [2] (setting [4]), less than 0.5 µM.
